The values below come from patent US20240417425A1 (priority 2021, published 2024).

The subject of series [1] is MHV, FIPV, Middle East respiratory syndrome (MERS)-CoV, VSV, IAV. The note with it: cited from earlier work.
In a further series the test system is quail cardiomyocytes. Particulars: for Effect on cardiomyocytes contractility compared to digoxin: all concentrations tested, 10 minutes and 30 minutes after addition (FIGS. 5, 6).
A short description of a further series: in vitro. The note with it: human.
The next series deals with Na^+, K^+-ATPase. The note with it: for Inhibition of brain microsomal Na+,K+-ATPase activity, potency in comparison to Bufalin: FIGS. 2 and 3.
The test system of series [2] is Neuroblastoma (SH-SY5Y) cells.
The test system of the next series is NCI-60 cell line panel. Description: NCI-60 one-dose cancer cell growth testing. The format is cell-based, human. Particulars: FIGS. 13-15. The method, then:
The anti-proliferative activity of the target compounds was tested against the NCI-60 cell line panel. The screening was performed at the National Cancer Institute (NCI), Bethesda, Maryland, USA (www.dtp.nci.nih.gov), according to their standard protocol (https://dtp.cancer.gov/discovery_development/nci-60/methodology.htm).
In the anti-cancer studies were performed at the NCI, NIH in the one-dose testing of the NCI-60 project (https://dtp.cancer.gov/discovery_development/nci-60/methodology.htm). The numbers reported are growth relative to the no-drug control, and relative to the time zero number of cells. This allows detection of both growth inhibition (values between 0 and 100) and lethality (values less than 0). For example, a value of 100 means no growth inhibition. A value of 40 would mean 60% growth inhibition. A value of 0 means no net growth over the course of the experiment. A value of −40 would mean 40% lethality. A value of −100 means all cells are dead.

Series [3] deals with Japanese Encephalitis Virus. The note with it: cited from earlier work.
Series [4] concerns Chikungunya virus (CHIKV). Particulars: human cells; cited from earlier work.
The next series relates to herpes simplex virus. The note with it: cited from earlier work.
Series [5] relates to transmissible gastroenteritis coronavirus (TGEV). The note with it: swine testicular (ST) cells; cited from earlier work.
The subject of series [6] is Human respiratory syncytial virus (RSV). Particulars: human small airway epithelial cells; cited from earlier work.
The subject of a further series is influenza virus. Particulars: cited from earlier work.

Like-named read-outs stand apart in the source and are kept apart here.

For the compound `C[C@]12CC[C@H](O)C[C@H]1CC[C@@H]1[C@@H]2CC[C@]2(C)[C@@H](c3ccc(=O)oc3)CC[C@]12O` [Bufalin, bufalin], the “Effect on infection of cells with viruses” value in series [1] was “inhibited infection of cells with MHV, FIPV, Middle East respiratory syndrome (MERS)-CoV, and VSV, but not IAV”.
As to `C[C@]12CC=CCC1CCC1C2CC[C@]2(C)[C@@H](c3ccc(=O)oc3)CC[C@]12O` (stereo partly drawn) [Compound 1, bufalin 2,3-ene], the “Effect on cardiomyocytes contractility compared to digoxin” value in the series on quail cardiomyocytes is “stronger effect on contractility than digoxin”. Moreover, in “in vitro”, the viability at 5 µM is 32.2%, the viability at 25 µM stood at 13.8%, the viability at 50 µM worked out at 5.62% and the viability at 100 µM was determined as 1.28%. Besides, the “Inhibition of brain microsomal Na+,K+-ATPase activity, potency in comparison to Bufalin” value with Na^+, K^+-ATPase was “approximately the same potency as Bufalin”. Besides, the “Cytotoxic potency in comparison to the other steroids” value in [2] was “lower cytotoxic potency”. The “Most sensitive cancer cell line” value in the series on NCI-60 cell line panel is recorded as “SNB-19”.
As to `C[C@]12CCC=CC1CCC1C2CC[C@]2(C)[C@@H](c3ccc(=O)oc3)CC[C@]12O` (stereo partly drawn) [Compound 2, bufalin 3,4-ene], in the series on quail cardiomyocytes, the “Effect on cardiomyocytes contractility compared to digoxin” value is “stronger effect on contractility than digoxin”. In “in vitro”, the viability at 5 µM is 53.8%, the viability at 25 µM was 24.7%, the viability at 50 µM was 11.5% and the viability at 100 µM was determined as 6.13%. Also, in the series with Na^+, K^+-ATPase, the “Inhibition of brain microsomal Na+,K+-ATPase activity, potency in comparison to Bufalin” value is “more potent inhibitor”. In addition, the “Inhibition of Na+,K+-ATPase activity at very low concentrations in comparison to Bufalin” value with Na^+, K^+-ATPase (very low (nanomolar) concentrations) is listed as “better than Bufalin”. Moreover, in series [2], the “Cytotoxic potency in comparison to the other steroids” value is “lower cytotoxic potency”. The “Most sensitive cancer cell line” value in the series with NCI-60 cell line panel is listed as “SNB-19”.
As to `C[C@H]1O[C@@H](O[C@H]2[C@@H](O)C[C@H](O[C@H]3[C@@H](O)C[C@H](O[C@H]4CC[C@@]5(C)[C@H](CC[C@@H]6[C@@H]5C[C@@H](O)[C@]5(C)[C@@H](C7=CC(=O)OC7)CC[C@]65O)C4)O[C@@H]3C)O[C@@H]2C)C[C@H](O)[C@@H]1O` [Digoxin, digoxin], in [3], the “Efficiency against Japanese Encephalitis Virus” value is “robust efficiency against the virus”. In “in vitro”, this compound yielded a viability at 5 µM of 23.4%, a viability at 25 µM of 1.02%, a viability at 50 µM of 0.26% and a viability at 100 µM of 2.55%. Besides, the “Effect on infection by CHIKV” value in series [4] is reported as “dose-dependent decrease in infection”.
On to `C[C@@H]1O[C@@H](O[C@H]2C[C@@H](O)[C@]3(CO)[C@H]4[C@H](O)C[C@]5(C)[C@@H](C6=CC(=O)OC6)CC[C@]5(O)[C@@H]4CC[C@]3(O)C2)[C@H](O)[C@H](O)[C@H]1O` [Ouabain, ouabain], for which, in series [3], the “Efficiency against Japanese Encephalitis Virus” value is “robust efficiency against the virus”. In “in vitro”, this compound came in with a viability at 5 µM of 6.26%, a viability at 25 µM of 1.92%, a viability at 50 µM of 0.51% and a viability at 100 µM of 4.09%. Besides, in the series on herpes simplex virus, the “Reduction of expression of viral immediate-early and early genes” value is reported as “at least 5 fold”. Moreover, in [1] (nM concentrations), the “Effect on infection of cells with viruses” value was “inhibited infection of cells with MHV, FIPV, Middle East respiratory syndrome (MERS)-CoV, and VSV, but not IAV”. In addition, the “Effect on TGEV-induced production of IL-6” value in [5] was “inhibit the TGEV-induced production of IL-6 in a dose dependent manner”. Further, the “Effect on RSV entry” value in series [6] is given as “inhibited”. Also, the “Effect on influenza virus replication” value in the series on influenza virus is reported as “decrease influenza virus replication”. For the same compound, the “Effect on infection by CHIKV” value in [4] is reported as “dose-dependent decrease in infection”.
On to `NC[C@H](O)c1ccc(O)c(O)c1` [noradrenaline], for which the “Effect on cardiomyocytes contractility” value in the series with quail cardiomyocytes (dose-dependently, FIG. 4) was “increased”.

The term viability denotes the share of living cells, or the viability signal relative to a control. Read a low viability as more harm to the cells.
